Measured values from patent US11028127B2, “Peptides capable of reactivating p53 mutants” (Yeda Research and Development Co. Ltd., priority 2013, dated 2021).

Assays:
[1] = target: T1, Mut-p53 (R175H p53) (Homo sapiens, UniProt P04637, R175H); experiment: p53/DNA binding ELISA kit (R&D), binding to p53-RE DNA; type: biochemical; details: H1299-R175H p53 cell extracts, vs background (NT)
T1 construct: a hot spot full length mutant p53 Mut-p53 R175H (R175H p53); expressed in transfected cells; host or cells: H1299 (p53-null) cells stably overexpressing R175H p53; cell extract
Excerpt: A commercial p53/DNA binding kit (R&D) was used, according to manufacturer instructions. Briefly, 96 well plates were coated with anti-p53 antibody overnight. Cell extracts containing p53 were reacted with an oligonucleotide that contains a p53 consensus binding site, labeled with biotin, in the presence or absence (NT) of test peptides. WT p53 is expected to bind this DNA binding site as well as to the antibody coating the test wells of the plate. Excess p53 and oligos are washed away and streptavidin-HRP is used to quantify the amount of oligos in the well, which is proportional to the DNA bound by p53. TMB assay was performed to determine HRP levels (450 nm). The results are presented as relative absorbance (at 450 nm) (Y-Axis) of each tested sample. MCF7 and the H1299-Mut-p53 (ts) A135V cells serve as positive controls for WT p53.
For these experiments, a commercial p53/DNA binding kit of “R&D” (Cat-DYC1355-5 Lot-1273366FA) was used, in accordance with manufacturer guide lines. Briefly, 96 well plates are coated with anti-p53 antibody overnight. Cell extracts containing p53 are reacted with an oligonucleotide that contains a p53 consensus binding site (provided in the kit), labeled with biotin, in the presence or absenc.
e (NT) of test peptides. WT p53 is expected to bind this DNA binding site as well as to the antibody coating the test wells of the plate. Excess p53 and oligos were washed away and streptavidin-HRP was used to quantify the amount of oligos in the well, which is proportional to the DNA bound by p53. TMB assay was performed to determine HRP (ES001-1L-K) levels (450 nm).
To measure the effect of the tested peptides on DNA binding of Mut-p53, a commercial ELISA kit, (R&D Systems DYC1355-5, Lot-1273366FA), was used as a high-throughput assay to quantify p53 activation. This kit uses a 96-well plate format. The kit was used according to manufacturer's instructions. Wells were coated with anti-p53 antibody overnight. Cell extracts containing p53 were reacted with a biotin labeled oligonucleotide containing a p53 consensus binding site (included in the kit). WT p53 is expected to bind this oligo as well as the antibody coating the wells. Excess p53 and oligo were washed away in wash buffer (0.05% Tween 20 in PBS, pH 7.2-7.4; R&D Systems, Catalog #WA126). Then, streptavidin-HRP (R&D Systems, Part 890803, provided in the kit) was added for 15-45 min to quantify the amount of oligo in the well, which is proportional to the DNA bound by p53. If the addition of a peptide to Mut-p53 extracts increases ELISA reading compared to background, this peptide is considered as functionally effective and may be selected for further analysis. […] As with the conformational screening, MCF7 and the H1299-Mut-p53 (ts) A135V cells served as positive controls for WT p53. Extracts were added to the wells coated with αp53-Ab, and after several washing steps, streptavidin-HRP was added for 1 hour, and then plates were washed again and TMB (substrate to HRP) assay was performed.

[2] = test system: WI-38 fibroblasts expressing mouse Noxa shRNA (WI38-m-Noxa-i); experiment: Crystal violet viability assay; type: cell-based; details: 48 hours
Procedure: (§1) FIGS. 13A and 13B are bar graphs illustrating the effect of various tested peptides on the viability of cells expressing Mut-p53, as determine by crystal violet assay. WI-38 fibroblasts expressing endogenous WT p53 were infected with retroviruses expressing either mouse Noxa shRNA (WI38-m-Noxa-i) as a nonspecific control or the R175H p53 mutant for stable overexpression of mutant p53 (WI38-175). The cells (WI38-m-Noxa-i or WI38-175) were seeded at 3000 cells per well in 96-well plates. Tested peptides were added to the cells. Different concentrations of etoposide (cytotoxic drug, 4′-Demethyl-epipodophyllotoxin 9-[4,6-O—(R)-ethylidene-beta-D-glucopyranoside], 4′-(dihydrogen phosphate) were used as positive control for cell death and as a standard reference curve to assess the effect of tested peptides. 48 hours after treatment, cells were washed with PBS to exclude dead cells and debris, and cells that remained attached to the plate were stained with crystal-violet for 30 minutes. Crystal violet was removed and cells were washed 4 times with PBS to remove residual crystal violet. Then, the stained cells were dissolved in 10% acetic acid and plates were taken for optical density measurement at 595 nM (optimal for crystal violet). The bar graphs of FIGS. 13A and 13B show the optical density reads at 595 nm, which reflect the number of cells in the plate after treatment, normalized to the non-treated (NT) samples.
(§2) Cells were cultured in 96 wells plates with 2500-4000 cells/well in 0.1 ml and incubated overnight at 37° C. in order to adhere to the plate. Serial dilutions of different peptides (0.5 μg/ml) were added in 0.1 ml aliquots and the plates incubated for additional 48 h at 37° C. Then medium was removed and cell lysis was determined by staining the cells with crystal violet (0.5%) in methanol/water (1:4, v/v), 50 μl each well, for 10 min, followed by 3 washes with PBS. Afterwards, 10% acetic acid (50 μl) was added to each well and shaken for 10 min. Then, automatic plate reading was performed at 595 nm.
(§3) An important indication for the reactivating peptides activity is their effect in-vivo on cancer cells that express Mut-p53. In particular, reactivating peptides that can cause specifically Mut-p53-dependent death of cancer cells, with minimal toxic effects on normal cells are desired. A crystal-violet based viability assay, in which crystal-violet is employed to stain cells that adhere to the plate and therefore the amount of dye is proportional to cell number was used to determine the effect of the various test peptides on Mut-p53-dependent death.
(§4) Cells were plated in 96-well plates, at calibrated density that allows them to grow for 48 hours without reaching confluence. Peptides are added 6 hours later. Different concentrations of etoposide (cytotoxic drug) were used as positive control for cell death and as a standard reference curve to assess the effect of tested peptides. 48 hours after treatment, cells were washed with PBS to exclude dead cells and debris, and cells that remained attached to the plate were stained with crystal-violet for 30 minutes. Crystal-violet was removed and cells were washed with PBS 4 times to eliminate remains of crystal-violet. Then, the stained cells were dissolved in 10% acetic acid and plates were taken for optical density measurement at 595 nM (specific to crystal-violet).
(§5) FIGS. 13A and 13B illustrate a representative experiment of screening performed on 128 synthesized peptides. In this experiment, WI-38 fibroblasts were used. These cells express endogenous WT p53 and were further infected with a virus expressing either mouse Noxa shRNA, as a nonspecific control or the R175H p53 mutant for stable overexpression of mutant p53. Both of these sub-lines (mNoxa or R175H p53) were seeded at 3000 cells per well and treated as described above. […]

[3] = test system: WI-38 fibroblasts overexpressing R175H p53 (WI38-175); experiment: Crystal violet viability assay; type: cell-based; details: 48 hours; much more prominent than in mNoxa-i control cells
Procedure: as §1, §2, §3, §4, §5

YRRLLIGMMWRRRRRRRRRRR [pCAP-68]
binding of H1299-R175H p53 extracts to p53-RE DNA [1]: elevate the binding of H1299-R175H p53 extracts to p53-RE DNA | effect on cell numbers, mNoxa-i control WI-38 cells [2]: toxic effect on both cell sub-lines | reduction in cell numbers, R175H p53 expressing WI-38 cells [3]: toxic effect on both cell sub-lines
